Counter-ions that a name gives are not always drawn.
Key:
[1] = target: T1, NMDA receptor ([3H]ifenprodil binding site) (Rattus norvegicus, UniProt P35439+Q00960); assay: [3H]Ifenprodil binding assay, rat forebrain membranes; conditions: adult rat forebrain membranes, 4 nM [3H]-ifenprodil, 2 hours at room temperature, pH 7.4
T1 construct: tissue Zivic-Miller Laboratories, Inc; host or cells: adult rat forebrain, washed buffy coat membrane fraction
Experimental: [^3H]Ifenprodil Binding Assay Protocol:
All buffers and reagents used in assay incubations or to dissolve drugs were prepared using water purified through a Milli-Q reverse osmosis system (Millipore Corp, Bedford, Mass.) and treated with UV emissions. Prior to use in the assays, buffers were further filtered through a sterile Corning filtration unit (Corning Glass Works, Corning, N.Y.) containing a 0.2 micron filter. Buffer used to rinse the membranes on the assay filters was prepared with purified water, but was not refiltered and was stored no longer than 5 days. Stock solutions of the drugs (usually 10 mM) were dissolved in 20 mM HEPES-KOH buffer pH 7.4 (assay buffer) with the addition of 1 to 5 μL of glacial AcOH, if needed, to keep them in solution. For eliprodil, the stock solution was buffer with the addition of 10% DMSO. All subsequent dilutions from stock were made in buffer.
An extensively washed buffy coat membrane fraction was prepared from frozen adult rat forebrains (Zivic-Miller Laboratories, Inc, Zelienople, Pa.) as described previously (Coughenour L. L., Cordon J. J. J. Pharmacol Exp. Ther., 1997;280:584-592) and stored at −80° C. On the day of the assay, pellets were resuspended in 35 mL of assay buffer at pH 7.4 using a Polytron setting 6. After incubation at 37° C. for 30 minutes in a shaking water bath, the homogenate was centrifuged 40,000×g for 10 minutes at 4° C. The pellets were resuspended in fresh buffer and centrifuged 3 more times before final suspension for use in the assay.
[^3H]Ifenprodil Binding. Triplicate incubations were carried out in a volume of 0.5 mL in 1.3 mL polypropylene tubes (Marsh Biomedical Products Inc, Rochester, N.Y.) for 2 hours at room temperature. Incubations contained test agents, membranes (100-200 μg protein), and 4 nM [^3H]-ifenprodil in 20 mM HEPES-KOH buffer, pH 7.4 (assay buffer). Assays were started by addition of the membranes. Bound radioligand was separated by filtration under reduced pressure Using a Tomtec Mach II, 96-well cell harvester (Tomtec Inc, Orange, Colo.). Filtration was through Whatman GF/B glass fiber filters (Whatman Ltd, Maidstone, England), which had been soaked for at least 15 minutes in 0.3% polyethylenimine and allowed to air dry. The filters were rinsed with 3 mL of ice cold assay buffer within 6 seconds. Air was allowed to pass through the filters for an additional 10 seconds to remove residual moisture. The filter mat was supported on a cold (−20° C.) teflon support, and filters from individual wells were separated and placed in Mini Poly-Q vials (Beckman Instrrnents Inc, Fullerton, Calif.) and filled with 4 mL of scintillation cocktail (Beckman Ready Protein^+). Radioactivity retained on the filter was determined by liquid scintillation spectrophotometry. Nonspecific binding was defined as the binding in the presence of 1 mM ifenprodil. Specific binding was 90%.
Data analysis. Binding curves were statistically analyzed for a best one or two site competition fit using GraphPad Prism software (GraphPad Software Inc, San Diego, Calif.). The normalized data was fit by nonweighted nonlinear regression to either [formula]
Control data was entered as 100%, and no parameters were constrained. Inhibition curves were compared by ANOVA with post test comparisons of the logIC50 using Dunnett's multiple comparisons post test or Student's nonpaired, two-tailed t-test (GraphPad InStat software).

NR2A/NR2B = NR2A/NR2B (Rattus norvegicus, UniProt Q00960); assay: Electrophysiological assay at NMDA receptor subunits expressed in Xenopus oocytes (two-electrode voltage clamp); type: cell-based; conditions: cloned rat NMDA receptor subunits in Xenopus oocytes; currents activated by glutamate (100 μM) and glycine (1-100 μM); read-out: NR2A/NR2B Oocyte IC50
Sequence of NR2A/NR2B (Q00960 27-1482, other chains not shown): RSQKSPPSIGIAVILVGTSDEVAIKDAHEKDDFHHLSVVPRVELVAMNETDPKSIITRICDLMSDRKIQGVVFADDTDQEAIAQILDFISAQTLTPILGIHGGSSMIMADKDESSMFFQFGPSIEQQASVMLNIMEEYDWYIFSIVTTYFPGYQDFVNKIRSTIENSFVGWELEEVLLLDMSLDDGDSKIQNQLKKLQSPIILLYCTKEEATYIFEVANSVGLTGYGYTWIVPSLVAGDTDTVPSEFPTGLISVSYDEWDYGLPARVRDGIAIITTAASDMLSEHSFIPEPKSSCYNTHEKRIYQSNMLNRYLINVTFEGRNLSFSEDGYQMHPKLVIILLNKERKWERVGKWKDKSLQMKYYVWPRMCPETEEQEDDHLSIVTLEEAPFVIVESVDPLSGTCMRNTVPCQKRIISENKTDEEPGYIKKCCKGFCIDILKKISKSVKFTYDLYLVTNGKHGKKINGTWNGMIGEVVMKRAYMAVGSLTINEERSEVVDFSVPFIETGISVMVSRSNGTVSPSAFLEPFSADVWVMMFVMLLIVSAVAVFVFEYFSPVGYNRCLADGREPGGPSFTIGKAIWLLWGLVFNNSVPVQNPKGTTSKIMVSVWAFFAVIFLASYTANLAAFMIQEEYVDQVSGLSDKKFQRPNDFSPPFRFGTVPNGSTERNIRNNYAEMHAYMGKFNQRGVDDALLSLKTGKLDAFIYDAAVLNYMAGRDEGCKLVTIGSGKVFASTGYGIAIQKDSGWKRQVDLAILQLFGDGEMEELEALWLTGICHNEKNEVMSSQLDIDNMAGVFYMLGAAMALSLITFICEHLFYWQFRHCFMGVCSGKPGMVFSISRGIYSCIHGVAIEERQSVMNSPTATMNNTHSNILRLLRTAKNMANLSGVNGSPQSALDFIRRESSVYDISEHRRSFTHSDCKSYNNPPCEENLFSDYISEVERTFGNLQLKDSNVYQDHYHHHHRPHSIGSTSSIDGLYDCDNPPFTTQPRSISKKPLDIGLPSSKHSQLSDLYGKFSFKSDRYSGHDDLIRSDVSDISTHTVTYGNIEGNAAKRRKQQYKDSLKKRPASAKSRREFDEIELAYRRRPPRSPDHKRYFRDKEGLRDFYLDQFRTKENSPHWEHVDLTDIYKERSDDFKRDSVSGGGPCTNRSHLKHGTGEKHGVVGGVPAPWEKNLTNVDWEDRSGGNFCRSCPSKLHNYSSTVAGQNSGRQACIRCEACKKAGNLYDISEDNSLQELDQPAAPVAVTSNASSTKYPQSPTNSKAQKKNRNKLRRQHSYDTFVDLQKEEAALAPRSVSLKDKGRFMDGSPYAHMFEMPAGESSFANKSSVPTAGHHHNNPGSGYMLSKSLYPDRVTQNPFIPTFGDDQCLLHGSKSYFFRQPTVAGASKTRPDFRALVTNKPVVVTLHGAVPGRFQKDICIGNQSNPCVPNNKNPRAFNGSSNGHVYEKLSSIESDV
Text: Electrophysiological Assays at NMDA Receptor Subunits
Preparation of RNA. cDNA clones encoding the NR1A, NR2A, NR2B, and NR2C rat NMDA receptor subtypes were used (see, Moriyoshi et al. Nature (Lond), 1991;354:31-37; Kutsuwada et al. Nature (Lond), 1992;358:36-41; Monyer et al. Science (Washington, D.C.), 1992;256:1217-1221; Ikeda et al. FEBS Lett., 1992;313:34-38; Ishii et al. J. Biol. Chem., 1993;268:2836-2843 for details of these clones or their mouse homologs). The clones were transformed into appropriate host bacteria, and plasmid preparations were made with conventional DNA purification techniques. A sample of each clone was linearized by restriction enzyme digestion of […] and was synthesized with T3 RNA polymerase. The cRNA was diluted to 400 ng/μL and stored in 1 μL aliquots at −80° C. until injection.
The Xenopus oocyte expression system. Mature female Xenopus laevis were anaesthetized (20-40 minutes) using 0.15% 3-aminobenzoic acid ethyl ester (MS-222), and 2-4 ovarian lobes were surgically removed. Oocytes at developmental stages IV-VI (Dumont J. N. J. Morphol., 1972;136:153-180) were dissected from the ovary still surrounded by enveloping ovarian tissues. Follicle-enclosed oocytes were micro-injected with 1:1 mixtures of NR1A:NR2A, 2B, or 2C; injecting 1 to 10 ng of RNA encoding each receptor subunit. NR1A encoding RNA was injected alone at ˜20 ng. Oocytes were stored in Barth's medium containing (in mM): NaCl, 88; KCl, 1; CaCl2, 0.41; Ca (NO3)2, 0.33; MgSO4, 0.82; NaHCO3, 2.4; HEPES 5, pH 7.4, with 0.11 mg/ml gentamicin sulphate. While oocytes were still surrounded by enveloping ovarian tissues, the Barth's medium was supplemented with 0.1% bovine serum. […]
Electrical recordings were made using a conventional two-electrode voltage clamp (Dagan TEV-200) over periods ranging between 3 to 21 days following injection. […] Using oocytes expressing different subunit combinations of NMDA receptor, NMDA currents were activated by co-application of glutamate (100 μM and glycine (1-100 μM). Inhibitory potency of the novel antagonists was assessed on responses elicited by fixed concentrations of glutamate and glycine, by measuring reductions in current induced by progressively increasing concentrations of antagonist. […]
In which Icontrol is the current evoked by agonists alone, pIC50=−log IC50, IC50 is the concentration of antagonist that produced half maximal inhibition, and n is the slope factor (De Lean et al. Am. J. Physiol., 1978;235:E97-102). For incomplete curves, analysis by fitting was unreliable, and IC50 values were calculated by simple regression over linear portions of the curves (Origin: Microcal Software).

T1 sequence (Q00960 27-1482, other chains not shown): as above

SMILES | melting point [°C] | IC50 [1] [nM] | IC50 (NR2A/NR2B) [nM]
O=c1[nH]c2ccc(CCCN[C@H]3CC[C@H](c4ccc(F)cc4)CC3)cc2o1 (as salt: HCl) [Example 2, 6-{3-[trans-4-(4-Fluorophenyl)cyclohexylamino]propyl}-3H-benzoxazol-2-one] | 295 to 303 |  | 
CN(CCN[C@H]1CC[C@H](c2ccccc2)CC1)c1ccc2[nH]c(=O)oc2c1 (as salt: HCl) [Example 3, 6-{Methyl[2-(trans-4-phenylcyclohexylamino)ethyl]amino}-3H-benzoxazol-2-one] | 229 to 234 |  | 
CN(CCCc1ccc2[nH]c(=O)oc2c1)[C@H]1CC[C@H](c2ccc(F)cc2)CC1 (as salt: HCl) [Example 6, 6-(3-{[trans-4-(4-Fluorophenyl)cyclohexyl]methylamino}propyl)-3H-benzoxazol-2-one] | 235 to 241 |  | 
CCN(CCCc1ccc2[nH]c(=O)oc2c1)[C@H]1CC[C@H](c2ccc(F)cc2)CC1 (as salt: HCl) [Example 7, 6-(3-{[trans-4-(4-Fluorophenyl)cyclohexyl]ethylamino}propyl)-3H-benzoxazol-2-one] | 99 to 109 |  | 
O=c1[nH]c2ccc(OCCN[C@H]3CC[C@@H](c4ccccc4)CC3)cc2[nH]1 (as salt: HCl) [Example 8a, 5-[2-(cis-4-Phenylcyclohexylamino)ethoxy]-1,3-dihydrobenzimidazol-2-one] | 232 to 237 |  | 
O=c1[nH]c2ccc(OCCN[C@H]3CC[C@H](c4ccccc4)CC3)cc2[nH]1 (as salt: HCl) [Example 8b, 5-[2-(trans-4-Phenylcyclohexylamino)ethoxy]-1,3-dihydrobenzimidazol-2-one] | 315 to 320 |  | 
O=c1[nH]c2ccc(CCCN[C@H]3CC[C@H](c4ccccc4)CC3)cc2o1 [Example 1, 6-[3-(trans-4-Phenylcyclohexylamino)propyl]-3H-benzoxazol-2-one] | 218 to 223 | 53 | 
O=c1[nH]c2ccc(CCCN[C@H]3CC[C@H](c4ccc(F)cc4)CC3)cc2o1 [Example 2, 6-{3-[trans-4-(4-Fluorophenyl)cyclohexylamino]propyl}-3H-benzoxazol-2-one] |  |  | 120
CN(CCN[C@H]1CC[C@H](c2ccccc2)CC1)c1ccc2[nH]c(=O)oc2c1 [Example 3, 6-{Methyl[2-(trans-4-phenylcyclohexylamino)ethyl]amino}-3H-benzoxazol-2-one] |  |  | 1000
O=c1[nH]c2ccc(SCCN[C@H]3CC[C@H](c4ccccc4)CC3)cc2o1 [Example 4, 6-[2-(trans-4-Phenylcyclohexylamino)ethylsulfanyl]-3H-benzoxazol-2-one] |  | 91 | 
CN(CC(O)c1ccc2[nH]c(=O)[nH]c2c1)[C@H]1CC[C@H](c2ccccc2)CC1 (stereo partly drawn) [Example 5, 5-{1-Hydroxy-2-[methyl(trans-4-phenylcyclohexyl)amino]ethyl}-1,3-dihydrobenzimidazol-2-one] |  | 1760 | 
CN(CCCc1ccc2[nH]c(=O)oc2c1)[C@H]1CC[C@H](c2ccc(F)cc2)CC1 [Example 6, 6-(3-{[trans-4-(4-Fluorophenyl)cyclohexyl]methylamino}propyl)-3H-benzoxazol-2-one] |  | 730 | 
CCN(CCCc1ccc2[nH]c(=O)oc2c1)[C@H]1CC[C@H](c2ccc(F)cc2)CC1 [Example 7, 6-(3-{[trans-4-(4-Fluorophenyl)cyclohexyl]ethylamino}propyl)-3H-benzoxazol-2-one] |  | > 1000 | 
O=c1[nH]c2ccc(OCCN[C@H]3CC[C@@H](c4ccccc4)CC3)cc2[nH]1 [Example 8a, 5-[2-(cis-4-Phenylcyclohexylamino)ethoxy]-1,3-dihydrobenzimidazol-2-one] |  |  | 280
O=c1[nH]c2ccc(OCCN[C@H]3CC[C@H](c4ccccc4)CC3)cc2[nH]1 [Example 8b, 5-[2-(trans-4-Phenylcyclohexylamino)ethoxy]-1,3-dihydrobenzimidazol-2-one] |  |  | 120

— patent US6683101B2, “Bicyclic cyclohexylamines and their use as NMDA receptor antagonists” (Warner-Lambert Company, priority 2000, dated 2004)
